Measurements from patent US8288382B2, “Diaminothiazoles useful as Axl inhibitors” (Rigel Pharmaceuticals, Inc., priority 2006, dated 2012).

Biological target: T1, Axl (Homo sapiens, UniProt P30530)
T1 construct: endogenous in cells; host or cells: HeLa cells
T1 sequence (P30530 26-894): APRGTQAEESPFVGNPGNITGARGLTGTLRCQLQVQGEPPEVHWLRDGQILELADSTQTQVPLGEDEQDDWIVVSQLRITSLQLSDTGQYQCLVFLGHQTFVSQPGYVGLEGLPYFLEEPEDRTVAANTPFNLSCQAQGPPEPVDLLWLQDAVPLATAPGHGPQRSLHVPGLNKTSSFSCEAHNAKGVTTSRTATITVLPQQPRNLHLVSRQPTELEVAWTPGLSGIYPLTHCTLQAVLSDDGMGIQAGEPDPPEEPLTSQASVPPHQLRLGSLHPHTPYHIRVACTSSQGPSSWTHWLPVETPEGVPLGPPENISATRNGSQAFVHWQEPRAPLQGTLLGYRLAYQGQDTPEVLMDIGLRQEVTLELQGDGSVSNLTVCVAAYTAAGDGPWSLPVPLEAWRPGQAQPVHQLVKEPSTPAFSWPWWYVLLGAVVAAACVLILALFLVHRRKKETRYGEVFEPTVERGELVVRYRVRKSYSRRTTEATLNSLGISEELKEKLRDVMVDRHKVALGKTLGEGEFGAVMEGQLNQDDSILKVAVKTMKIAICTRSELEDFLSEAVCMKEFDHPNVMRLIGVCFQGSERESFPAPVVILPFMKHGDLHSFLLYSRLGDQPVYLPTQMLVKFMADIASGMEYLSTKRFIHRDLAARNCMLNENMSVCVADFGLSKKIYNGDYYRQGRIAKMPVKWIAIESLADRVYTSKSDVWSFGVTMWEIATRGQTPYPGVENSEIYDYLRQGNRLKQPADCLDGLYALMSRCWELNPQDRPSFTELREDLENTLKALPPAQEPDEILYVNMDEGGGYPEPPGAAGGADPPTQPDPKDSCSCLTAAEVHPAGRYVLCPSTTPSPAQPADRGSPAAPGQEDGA
Test: Phospho-Akt In-Cell Western Assay (inhibition of Axl activity)
Type: cell-based
Conditions: Hela cells, stimulated by Axl-antibody cross-linking, phospho-Akt chemiluminescence normalized to relative cell number
Method: The compounds of the invention were tested in the following assay for their ability to inhibit Axl activity.
Phospho-Akt In-Cell Western Assay
• Cell culture plate: 96 well assay plate (Corning 3610), white, clear bottom, tissue-culture treated. • Cells: Hela cells. • Starvation medium: For Axl stimulation: 0.5% FCS (fetal calf serum) in DMEM, plus Axl/Fc (extracellular domain of AXL fused to imunoglobulin Fc region) (R&D, 154-AL) 500 ng/mL. • For EGF (epidermal growth factor) stimulation: 0.5% FCS in DMEM (Dulbecco's modified Eagles medium). • Poly-L-Lysine 0.01% solution (the working solution): 10 μg/ml, dilute In PBS (phosphate buffered saline). • Axl antibody cross-linking: • 1st: Mouse anti-Axl (R&D, MAB154). • 2nd: Biotin-SP-conjugated AffiniPure goat anti-mouse IgG (H+L) (Jackson ImmunoResearch #115-065-003). • Fixing buffer: 4% formaldehyde in PBS. • Wash buffer: 0.1% TritonX-100 in PBS. • Quenching buffer: 3% H2O2, 0.1% Azide in wash buffer, Azide and hydrogen peroxide (H2O2) are added fresh. • Blocking buffer: 5% BSA in TBST (tris buffered saline plus 0.1% Tween 20). • Primary antibody: Rabbit anti-human Phospho-Akt antibody (Cell Signaling 9271): 1×250 diluted in blocking buffer. • Secondary antibody: HRP (horse radish peroxidase)-conjugated Goat anti-Rabbit secondary, stock solution: Jackson ImmunoResearch (Goat anti-Rabbit HRP, #111-035-144) 1:1 diluted in glycerol, store at −20° C. The working solution: 1×2000 dilution of stock in blocking buffer. • Chemiluminescent working solution (Pierce, 37030): SuperSignal ELISA (enzyme linked immunosorbant assay) Pico Chemiluminescent substrate. • Crystal Violet solution: Stock: 2.5% Crystal violet in methanol, filtered and kept at ambient temperature. The working solution: dilute the stock 1:20 with PBS immediately before use. • 10% SDS: working solution: 5% SDS (sodium dodecylsulfate), diluted in PBS Methods: Day 1:
A 96 well TC (tissue culture treated) plate was coated with 10 μg/mL poly-L-Lysine at 37° C. for 30 min, washed twice with PBS, and air-dried for 5 minutes before cells were added. Hela cells were seeded at 10,000 cells/well and the cells were starved in 100 μL starvation medium containing Axl/Fc for 24 hrs.
The cells were pre-treated with test compounds by adding 100 μL of 2× test compound to the starvation medium on the cells. The cells were incubated at 37° C. for 1 hr before stimulation.
The cells were stimulated by Axl-antibody cross-linking as follows: A 5× 1st/2nd Axl antibody mixture was made (37.5 μg/mL 1st/100 μg/mL 2nd) in starvation medium and nutated at 4° C. with thorough mixing for 1-2 hours for clustering. The resulting mix was warmed to 37° C. 50 μL of 5× Axl 1st/2nd of antibody cluster was added to the cells and the cells were incubated at 37° C. for 5 min.
After 5 minutes stimulation, the plate was flicked to remove medium and the plate was tapped onto paper towels. Formaldehyde (4.0% in PBS, 100 μL) was added to fix the cells and the cells were incubated at ambient temperature for 20 min without shaking.
The cells were washed with a plate washer buffer to remove the formaldehyde solution. The plate was flicked to removed excess wash buffer and tapped onto paper towels. Quenching buffer (100 μL) was added to each well and the cells were incubated at ambient temperature for 20 minutes without shaking.
The cells were washed with a plate washer buffer to remove the quenching buffer. Blocking buffer (100 μL) was added and the cells were incubated at ambient temperature for at least an hour with gentle shaking.
The cells were washed with a plate washer buffer and diluted primary antibody (50 μL) was added to each well (blocking buffer was added to the negative control wells instead). The plates were incubated overnight at 4° C. with gentle shaking.
The wash buffer was removed, diluted secondary antibody (100 μL) was added, and the cells were incubated at ambient temperature for 1 hour with gentle shaking. […]

SMILES | IC50 [µM]
COc1cc2ncnc(-c3sc(Nc4ccc(OCCN5CCCC5)cc4)nc3N)c2cc1OC [Compound 1, 5-(6,7-dimethoxyquinazolin-4-yl)-N^2-(4-(2-(pyrrolidin-1-yl)ethoxy)phenyl)thiazole-2,4-diamine] | 1 to 10
COc1ccc(Nc2nc(N)c(-c3ccccn3)s2)cc1 [Compound 2, N^2-(4-methoxyphenyl)-5-(pyridin-2-yl)thiazole-2,4-diamine] | > 20
COc1cc(Nc2nc(N)c(-c3cnc4ccccc4n3)s2)cc(OC)c1OC [Compound 3, 5-(quinoxalin-2-yl)-N^2-(3,4,5-trimethoxyphenyl)thiazole-2,4-diamine] | 1 to 10
Nc1nc(Nc2ccc(OCCN3CCCC3)cc2)sc1-c1cnc2ccccc2n1 [Compound 4, N^2-(4-(2-(pyrrolidin-1-yl)ethoxy)phenyl)-5-(quinoxalin-2-yl)thiazole-2,4-diamine] | 1 to 10
Nc1nc(Nc2ccc(OCCN3CCCC3)cc2)sc1-c1ncnc2ccccc12 [Compound 5, N^2-(4-(2-(pyrrolidin-1-yl)ethoxy)phenyl)-5-(quinazolin-4-yl)thiazole-2,4-diamine] | 1 to 10
COc1cc(Nc2nc(N)c(-c3ncnc4ccccc34)s2)cc(OC)c1OC [Compound 6, 5-(quinazolin-4-yl)-N^2-(3,4,5-trimethoxyphenyl)thiazole-2,4-diamine] | > 20
Nc1nc(Nc2ccc(N3CCOCC3)cc2)sc1-c1nccc2ccccc12 [Compound 7, 5-(isoquinolin-1-yl)-N^2-(4-morpholinophenyl)thiazole-2,4-diamine] | 10 to 20
Nc1nc(Nc2ccc(OCCN3CCCC3)cc2)sc1-c1nccc2ccccc12 [Compound 8, 5-(isoquinolin-1-yl)-N^2-(4-(2-(pyrrolidin-1-yl)ethoxy)phenyl)thiazole-2,4-diamine] | > 20
Nc1nc(Nc2ccc(OCCN3CCCC3)cc2)sc1-c1nc2ccccc2s1 [Compound 9, 5-(benzo[d]thiazol-2-yl)-N^2-(4-(2-(pyrrolidin-1-yl)ethoxy)phenyl)thiazole-2,4-diamine] | 1 to 10
COc1cc2ncnc(-c3sc(Nc4ccc(N5CCOCC5)cc4)nc3N)c2cc1OC [Compound 10, 5-(6,7-dimethoxyquinazolin-4-yl)-N^2-(4-morpholinophenyl)thiazole-2,4-diamine] | 1 to 10
COc1cc2ncnc(-c3sc(Nc4ccc(N5CCN(C)CC5)cc4)nc3N)c2cc1OC [Compound 11, 5-(6,7-dimethoxyquinazolin-4-yl)-N^2-(4-(4-methylpiperazin-1-yl)phenyl)thiazole-2,4-diamine] | 1 to 10
Nc1nc(Nc2ccc(N3CCN(C4CC5CCC4C5)CC3)cc2)sc1-c1ncnc2ccsc12 (centres unmarked) [Compound 12, N^2-(4-(4-(bicyclo[2.2.1]heptan-2-yl)piperazin-1-yl)phenyl)-5-(thieno[3,2-d]pyrimidin-4-yl)thiazole-2,4-diamine] | 1 to 10
COc1cc2ncnc(-c3sc(Nc4ccc(N5CCN(C6CC7CCC6C7)CC5)cc4)nc3N)c2cc1OC (centres unmarked) [Compound 13, N^2-(4-(4-(bicyclo[2.2.1]heptan-2-yl)piperazin-1-yl)phenyl)-5-(6,7-dimethoxyquinazolin-4-yl)thiazole-2,4-diamine] | > 20
COc1cc2ncnc(-c3sc(Nc4ccc(OCCN5CCCC5)c(Cl)c4)nc3N)c2cc1OC [Compound 14, N^2-(3-chloro-4-(2-(pyrrolidin-1-yl)ethoxy)phenyl)-5-(6,7-dimethoxyquinazolin-4-yl)thiazole-2,4-diamine] | 1 to 10
